Test results taken from ChEMBL document CHEMBL1144832, “An efficient one-pot synthesis of tethered cyclohexadiene enaminonitriles from methyl-ketones: an effective route to quinazolines” (Bioorg Med Chem Lett, 2008).
pIC50: −log10 of the molar value.

Assays:
ScN2a = test: Cytotoxicity against mouse ScN2a cells; format: functional
Jurkat = test: Cytotoxicity against human Jurkat cells; format: functional, cell-based
Escherichia coli = test: Antimicrobial activity against Escherichia coli; format: functional
Saccharomyces cerevisiae = test: Antimicrobial activity against Saccharomyces cerevisiae; format: functional
Bacillus subtilis = test: Antimicrobial activity against Bacillus subtilis; format: functional

SMILES	Activity (ScN2a) [µM]	CC50 (Jurkat) [µM]	MIC (Escherichia coli) [µM]	MIC (Saccharomyces cerevisiae) [µM]	MIC (Bacillus subtilis) [µM]	pIC50 (Jurkat)
N#Cc1c(N)nc(Sc2ccc(Cl)cc2)c(C#N)c1-c1ccccc1	35					
N#Cc1c(N)nc(Sc2ccccc2N)c(C#N)c1-c1ccco1	18					
CC1=C(/C=C/C2=Cc3ncnc(N)c3C(C)(/C=C/C3=C(C)CCCC3(C)C)C2)C(C)(C)CCC1 (stereo unspecified)		12.8	≥ 189	≥ 197	≥ 163	
CC1(c2ccc(-c3ccccc3)cc2)CC(c2ccc(-c3ccccc3)cc2)=Cc2ncnc(N)c21 (stereo unspecified)		10.4	≥ 189	≥ 197	≥ 163	
CC1(c2ccc(Br)s2)CC(c2ccc(Br)s2)=Cc2ncnc(N)c21 (stereo unspecified)		9.51	≥ 189	≥ 197	≥ 163	
CC1(c2ccccc2)CC(c2ccccc2)=Cc2ncnc(N)c21 (stereo unspecified)		17.6	≥ 189	≥ 197	≥ 163	
N#Cc1c(N)nc(Sc2ccc(Cl)cc2)c(C#N)c1-c1cccs1	16					
N#Cc1c(N)nc(Sc2ccc(Cl)cc2)c(C#N)c1-c1ccco1	19					
CC1(c2ccc(Br)cc2)CC(c2ccc(Br)cc2)=Cc2ncnc(N)c21 (stereo unspecified)		12.7	≥ 189	≥ 197	≥ 163	
CC1(c2ccc(Br)cc2)CC(c2ccc(Br)cc2)=CC(N)=C1C#N (stereo unspecified)		20.5	≥ 189	≥ 197	≥ 163	
CC1(c2ccccc2)CC(c2ccccc2)=CC(N)=C1C#N (stereo unspecified)		15.1	≥ 189	≥ 197	≥ 163	
CCCCCCC1=CC(N)=C(C#N)C(C)(CCCCCC)C1 (stereo unspecified)		46.8	≥ 189	≥ 197	≥ 163	
CCCCCCC1=Cc2ncnc(N)c2C(C)(CCCCCC)C1 (stereo unspecified)		12.6	≥ 189	≥ 197	≥ 163	
CC1(c2ccc3ccccc3c2)CC(c2ccc3ccccc3c2)=Cc2ncnc(N)c21 (stereo unspecified)		9.37	≥ 189	≥ 197	≥ 163	
CC1(c2cccs2)CC(c2cccs2)=Cc2ncnc(N)c21 (stereo unspecified)		15.4	≥ 189	≥ 197	≥ 163	
CC1(c2ccc(F)cc2)CC(c2ccc(F)cc2)=Cc2ncnc(N)c21 (stereo unspecified)		3.24	≥ 189	≥ 197	≥ 163	
CC1(c2cccs2)CC(c2cccs2)=CC(N)=C1C#N (stereo unspecified)		172	≥ 189	≥ 197	≥ 163	
CC1(c2ccc3ccccc3c2)CC(c2ccc3ccccc3c2)=CC(N)=C1C#N (stereo unspecified)			≥ 189	≥ 197	≥ 163	4.72
CC1(c2ccc(-c3ccccc3)cc2)CC(c2ccc(-c3ccccc3)cc2)=CC(N)=C1C#N (stereo unspecified)		19.3	≥ 189	≥ 197	≥ 163	
CC1(c2ccc(Br)s2)CC(c2ccc(Br)s2)=CC(N)=C1C#N (stereo unspecified)		13.9	≥ 189	≥ 197	≥ 163	
CC1=C(/C=C/C2=CC(N)=C(C#N)C(C)(/C=C/C3=C(C)CCCC3(C)C)C2)C(C)(C)CCC1 (stereo unspecified)		12.7	≥ 189	≥ 197	≥ 163	
CC1(c2ccc(F)cc2)CC(c2ccc(F)cc2)=CC(N)=C1C#N (stereo unspecified)		19.4	≥ 189	≥ 197	≥ 163	
